“Also recorded” adds a separate entry of the source.
Key:
Type in all cases: cell-based
[1] = system: human cortical brain organoids; assay: Whole-mount immunostaining of human cortical brain organoids (p62, poly-ubiquitin)
Experimental: Whole-Mount Immunostaining of Human Cortical Brain Organoids. Similar to the above-referenced procedures described for Drosophila tissues, human cortical brain organoids were immunostained with the following modifications: fixation and washes were done with 0.4% TRITON⋅ X-100; fixation was carried out for 50 minutes at room temperature; and organoids were blocked for >1 hour with PBS with 0.4% TRITON X-100 and 5% bovine serum albumin (BSA) before incubation with primary antibodies.
(§1) Drug Treatment of Human Cortical Brain Organoids. An additional 0.5 mL of culture medium was added to reach the final amount of 1 mL with 0, 3, 5, 10, 20, 40, or 80 mg of maltose per mL, or with 10, 20, 40 μL of porcine alpha-Amylase (MP Biomedicals) per mL, as indicated. After culturing at 37° C. for 3 days, the organoids were kept for 7 hours at 41.5° C. for heat shock, or at 37° C. (control). Subsequently, the organoids were collected and snap frozen. The organoids were then processed as described above for the western blot analysis of detergent-soluble and detergent-insoluble fractions.
Whole-mount immunostaining of organoids was carried out following similar procedures as described above for Drosophila brains and retinas, with anti-poly-ubiquitin (FK2; Enzo Life Sciences) and anti-p62/SQSTM1 antibodies (Cell Signaling Technologies). […]

[2] = system: human cortical brain organoids; assay: RNA-sequencing of human cortical brain organoids
Experimental: RNA-Sequencing of Human Cortical Brain Organoids. RNA sequencing libraries for each sample were prepared with 1 μg total RNA using the Illumina TRUSEQ® RNA Sample Prep v2 Kit per the manufacturer's instructions, and sequencing was completed on the Illumina HiSeq 2000. The 100 bp paired-end reads were trimmed, filtered against quality (Phred-like Q20 or greater) and length (50 bp or longer), and aligned to a human reference sequence GRCh38 (UCSC hg38), using CLC Genomics Workbench v12.0.1 (Qiagen). For gene expression comparisons, the TPM (transcript per million) counts were obtained from the RNA-Seq Analysis tool. A total of 19749 genes with TPM greater than one in at least one sample were in the principal component analysis (PCA) and the gene expression analysis was performed using the non-parametric ANOVA using the Kruskal-Wallis and Dunn's tests on log-transformed TPM counts between three replicates of each experimental group, implemented in Partek Genomics Suite v7.0 software (Partek Inc.).
as §1

[3] = system: human cortical brain organoids; assay: Multielectrode array recording of human cortical brain organoids
Experimental: Multielectrode Array Recording of Human Cortical Brain Organoids. Spontaneous neuronal activity of cortical organoids was recorded on the Axion Maestro Edge multielectrode array system. Two different methods for plating and recording were optimized from two-month old and three-month old organoids, to ensure maximum contact with electrodes. Method 1 (Two-month old cortical organoids; Maltose treatment): Growth factor reduced-cell culture matrix sold under the tradename […]® (Corning) was diluted 1:3 in chilled media containing BrainPhys and 10% ES-FBS and kept on ice. D60 cortical organoids were first sliced in half using a pair of fine tweezers. Each half was then plated onto one well of a 24-well Cytoview plate (Axion Biosystems), where each well contained a grid of 16 electrodes. After placing the organoid slice onto a dry and empty well using a sterile flat spatula, 15 μL of the chilled and diluted cell culture matrix sold under the tradename […]® was added onto the slice. A P10 tip was used to position the slice to the center of the well over the grid of electrodes. Three such plates were prepared. The plates were incubated at 37° C. for 3 hours for the cell culture matrix to solidify over the organoid slices. After 3 hours, 500 μL of BrainPhys media supplemented with 100× N2 supplement, 50× B27 supplement without Vitamin A, 10 ng/ml BDNF and 10 ng/ml GDNF were added slowly to each well. Every three days, 300 μL media in each well was replaced with fresh media three days and six days after plating. Seven days after plating, the plates were treated with either control or maltose containing media; all treatment conditions were included in each of the four plates. Three days after treatment, spontaneous activity was recorded from each plate. The plates were then subjected to heat shock for 7 hours at 41.5° C. Spontaneous activity in each plate was recorded again after the heat shock. This recording was repeated after 17 hours of recovery and after 43 hours of recovery. Data was analyzed using the Neural Metric tool (Axion Biosystems).

[4] = after heat shock, compared to control-treated organoids

Structure (SMILES): OC[C@H]1O[C@H](O[C@H]2[C@H](O)[C@@H](O)C(O)O[C@@H]2CO)[C@H](O)[C@@H](O)[C@@H]1O (mixture of isomers) [maltose]
- p62 and ubiquitin immunoreactivity ([1]; heat-shocked organoids, compared to controls): significantly decreased
- levels of p62 and poly-ubiquitinated proteins (immunostaining) ([1]; organoids, control conditions (no heat shock)): no change
- expression of gene clusters involved in protein quality control (proteasome components, proteases/peptidases) ([2]; human cortical brain organoids): promoted the expression
- gene expression changes induced by heat shock (RNA-seq) ([2]; human cortical brain organoids): prevented some of the gene expression changes
- mRNA and proteins levels of CRYA (a-crystallin) ([2]; human cortical organoids): increased
- bursts [3, 4]: more bursts
- number of active electrodes [3, 4]: higher number of active electrodes
- number of bursting electrodes [3, 4]: higher number of bursting electrodes
- number of spikes [3, 4]: higher number of spikes
- neuronal activity (number of active electrodes, bursting electrodes, network bursts) ([3]; immediately after and at 17 hours and 43 hours after heat shock): significantly preserved; also recorded: higher neuronal activity
- levels of maltose effective in preserving neuronal activity ([3]; organoids after heat shock): ≤ 5 mg/mL
- neuronal activity (number of active electrodes, bursting electrodes, network bursts) ([3]; steady state / pre-heat shock): not modulated

— patent US20230310559A1, “Use of Amylase or Maltose to Treat or Prevent Neurodegeneration” (St. Jude Children's Research Hospital, Inc., priority 2020, published 2023)
